According to PubChem BioAssay (NCI):
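Values below derive from 48-hour exposures of cells grown in 96-well plates, with endpoints linearly interpolated between the two concentrations bracketing the appropriate inhibition level. TGI: total growth inhibition.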

Assays:
Assay in all cases: growth of human tumour cells (NCI), 48 h
[1] = system: SNB-75 CNS
[2] = system: A549 NSCLC
[3] = system: T-47D breast
[4] = system: MDA-N
[5] = system: EKVX NSCLC
[6] = system: HS 578T breast
[7] = system: SK-OV-3 ovarian
[8] = system: CCRF-CEM leukemia
[9] = system: SK-MEL-2 melanoma
[10] = system: MCF7 breast
[11] = system: KM12 colon
[12] = system: UACC-62 melanoma
[13] = system: LOX IMVI melanoma
[14] = system: UACC-257 melanoma
[15] = system: SN12C renal
[16] = system: HCT-15 colon
[17] = system: IGROV1 ovarian
[18] = system: PC-3 prostate
[19] = system: HCC-2998 colon
[20] = system: SF-295 CNS
[21] = system: OVCAR-8 ovarian
[22] = system: SW-620 colon
[23] = system: MALME-3M melanoma
[24] = system: NCI-H23 lung
[25] = system: OVCAR-5 ovarian
[26] = system: M14 melanoma
[27] = system: SF-268 CNS
[28] = system: COLO 205 colon
[29] = system: SK-MEL-5 melanoma
[30] = system: HOP-92 NSCLC
[31] = system: BT-549 breast
[32] = system: HCT-116 colon
[33] = system: NCI/ADR-RES ovarian
[34] = system: HOP-62 NSCLC
[35] = system: MOLT-4 leukemia
[36] = system: SNB-19 CNS
[37] = system: OVCAR-3 ovarian
[38] = system: RXF 393 renal
[39] = system: UO-31 renal
[40] = system: RPMI-8226 leukemia
[41] = system: SR leukemia
[42] = system: OVCAR-4 ovarian
[43] = system: CAKI-1 renal
[44] = system: U251 CNS
[45] = system: MDA-MB-231 breast
[46] = system: NCI-H522 lung
[47] = system: NCI-H460 lung
[48] = system: HT29 colon
[49] = system: SK-MEL-28 melanoma
[50] = system: DU-145 prostate
[51] = system: NCI-H226 lung
[52] = system: TK-10 renal
[53] = system: 786-0 renal
[54] = system: SF-539 CNS
[55] = system: A498 renal
[56] = system: ACHN renal
[57] = system: MDA-MB-435
[58] = system: HL-60(TB) leukemia
[59] = system: K-562 leukemia

Measured: TGI

c1ccc2c(c1)CN1CCCC1CN2 (stereo not drawn)
> 100 µM: all assays above

N#Cc1c(O)c(C=Nc2ccc(Cl)cc2)c(=O)n2c1[nH]c1ccccc12
> 100 µM: all assays above
